Test results published in patent publication US20160208002A1, “Compositions Associated with and Methods of Managing Neutrophil Movement” (priority 2013, published 2016).

Assays:
[1] = system: human neutrophils; assay: human neutrophil spreading on fibronectin-coated plates after TNF-α; assay type: cell-based; settings: 3 microgram/ml compound, FIG. 3
[2] = system: C57/BL6 mice treated with bleomycin; assay: bleomycin-treated mice, cells in bronchoalveolar lavage (BAL); assay type: in vivo; settings: 0.1 mg/kg intraperitoneal daily from day 1, day 3 after bleomycin, versus drug vehicle; FIG. 5A
Description: The successful aspiration of bleomycin into the lungs was confirmed by listening for the crackling noise heard after the aspiration. 24 hours following bleomycin aspiration (day 1), mice were treated daily with intraperitoneal injections of 50 microliters of PBS containing 2 microliters of 1 mg/ml of compound 1 (ChemBridge Corporation, San Diego, Calif.) (0.1 mg/kg) dissolved in DMSO (SigmaAldrich, St. Louis, Mo.) or an equal volume of PBS containing 2 microliters of DMSO. All animals were used in accordance with rules published by the National Institutes of Health and with a protocol approved by the Texas A&M University Institutional Animal Care and Use Committee. Mice were weighed daily, and euthanized using CO2 following NIH guidelines at day 3 after bleomycin aspiration. There were no injections on day 3. […] The cells were resuspended in 500 microliters of 4% (w/v) BSA-PBS and counted with a hemacytometer. […] Primary antibodies were detected with biotinylated mouse anti-rat antibody (Jackson ImmunoResearch, West Grove, Pa.). […] Biotinylated antibodies were detected by a 1/500 dilution of ExtrAvidin alkaline phosphatase (Vector Laboratories, Burlingame, Calif.) in 4% BSA-PBS for 30 minutes. […] After washing, the biotinylated antibodies were detected by streptavidin-alkaline phosphatase kit (Vector Laboratories) following the manufacturer's protocol.

[3] = molecular target: T1, CD209 (Homo sapiens, UniProt Q9NNX6); settings: read-out: affinity for CD209, Kd; cited from earlier work
T1 sequence (Q9NNX6 1-404): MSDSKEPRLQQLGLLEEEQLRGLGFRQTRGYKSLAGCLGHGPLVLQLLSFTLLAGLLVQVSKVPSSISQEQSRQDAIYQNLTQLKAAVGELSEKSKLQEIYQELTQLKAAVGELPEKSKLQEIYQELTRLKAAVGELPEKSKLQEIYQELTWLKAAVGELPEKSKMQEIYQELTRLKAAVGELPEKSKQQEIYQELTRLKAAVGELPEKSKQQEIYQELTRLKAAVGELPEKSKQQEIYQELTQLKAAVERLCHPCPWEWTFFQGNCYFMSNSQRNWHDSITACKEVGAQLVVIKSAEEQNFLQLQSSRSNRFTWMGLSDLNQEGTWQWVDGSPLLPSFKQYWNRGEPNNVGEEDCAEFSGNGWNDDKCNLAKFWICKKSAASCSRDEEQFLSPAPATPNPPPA

[4] = system: human neutrophils; assay: human neutrophil adhesion to human fibronectin after TNF-α; assay type: cell-based; settings: fibronectin-coated plate, FIG. 2
Description: Human blood was collected into EDTA tubes (BD Bioscience, San Jose, Calif.) from adult volunteers who gave written consent and with specific approval from the Texas A&M University human subjects Institutional Review Board. Neutrophils were then isolated from the blood using Lympholyte-poly (Cedarlane Laboratories, Hornby, BC, Canada) following the manufacturer's protocol and resuspended in 2% bovine serum albumen (BSA) (fraction V, A3059; Sigma-Aldrich) in RPMI 1640 medium (Lonza, Allendale, N.J.). 96-well tissue culture plates (flat-bottom polystyrene, BD Bioscience) were pre-coated with 20 μg/ml of human plasma fibronectin (Trevigen, Gaithersburg, Md.) in phosphate buffered saline (PBS) for 30 minutes at 37° C. and then blocked with 2% BSA in RPMI for 1 hour at 37° C. 50 microliters of 5×10^5 cells/ml neutrophils were incubated with 3 microgram/ml (0.5 microliters of the stock solution) of compound 1 or 3 for 30 minutes at 37° C. in a 1.5 ml Eppendorf tube (Eppendorf, Hauppauge, N.Y.). When testing the effect of CD209 antibodies on neutrophil adhesion to human fibronectin, anti-human CD209 antibodies clone DCN46 (BD Biosciences, San Jose, Calif.), eB-h209 (eBioscience, San Jose, Calif.), H-200 (Santa Cruz Biotechnology, Dallas, Tex.), ab89186 (Abcam, Cambridge, Mass.), or 9E9A8 (Biolegend Inc, San Diego, Calif.) were incubated with neutrophils at a concentration of 1 microgram/ml (0.2 microliters of the stock solution) or the concentration indicated on the figure. Rat IgG2a was used as an isotype control for the anti-human CD209 antibody clone eB-h209. Mouse IgG2b was used as an isotype control for the anti-human CD209 antibody clone DCN46. Mouse IgG1 was used as an isotype control for the anti-human CD209 antibody clone 9E9A8. Rabbit IgG was used as an isotype control for the two rabbit anti-human CD209 antibodies clone H-200 and ab89186. […] After removing the media and washing the plates 3 times with PBS, the plates were air-dried, fixed, stained, and the number of neutrophils that remained in the wells was counted. […]

[5] = system: C57/BL6 mice treated with bleomycin; assay: bleomycin-treated mice, cells in lung sections after BAL; assay type: in vivo; settings: 0.1 mg/kg intraperitoneal daily, day 3 after bleomycin, FIG. 5B
Description: The successful aspiration of bleomycin into the lungs was confirmed by listening for the crackling noise heard after the aspiration. 24 hours following bleomycin aspiration (day 1), mice were treated daily with intraperitoneal injections of 50 microliters of PBS containing 2 microliters of 1 mg/ml of compound 1 (ChemBridge Corporation, San Diego, Calif.) (0.1 mg/kg) dissolved in DMSO (SigmaAldrich, St. Louis, Mo.) or an equal volume of PBS containing 2 microliters of DMSO. All animals were used in accordance with rules published by the National Institutes of Health and with a protocol approved by the Texas A&M University Institutional Animal Care and Use Committee. Mice were weighed daily, and euthanized using CO2 following NIH guidelines at day 3 after bleomycin aspiration. There were no injections on day 3. […] The cells from the first BAL collection were collected by centrifugation at 500×g for 10 minutes. The BAL pellets were resuspended in the secondary and tertiary BAL fluid and the combined cells were collected by centrifugation at 500×g for 5 minutes. The cells were resuspended in 500 microliters of 4% (w/v) BSA-PBS and counted with a hemacytometer. 100 microliters of diluted cells were then aliquoted into cytospin funnels and were then spun onto glass slides (Superfrost plus white slides, VWR) at 400×g for 5 minutes using a cytospin centrifuge (Shandon, Cheshire, England). These cells were then air dried, and stained with anti-mouse Ly6G (Biolegend) to detect neutrophils, anti-mouse CD11b (Biolegend) to detect granulocytes, monocytes, and macrophages, anti-mouse CD11c (MBL International) to detect alveolar macrophages and dendritic cells, or anti-mouse CD45 (Biolegend) to detect leukocytes. For all slides, non-specific; binding was blocked by incubation in PBS containing 4% BSA for 60 minutes. Slides were then incubated with 5 microgram/ml primary antibodies in 4% BSA-PBS for 60 minutes. Primary antibodies were detected with biotinylated mouse anti-rat antibody (Jackson ImmunoResearch, West Grove, Pa.). All secondary antibodies were used at 2.5 microgram/ml in 4% BSA-PBS for 30 minutes. Biotinylated antibodies were detected by a 1/500 dilution of ExtrAvidin alkaline phosphatase (Vector Laboratories, Burlingame, Calif.) in 4% BSA-PBS for 30 minutes. Staining was developed with the Vector Red Alkaline Phosphatase Kit (Vector Laboratories) for 4 minutes following the manufacturer's protocol. […] After washing, the biotinylated antibodies were detected by streptavidin-alkaline phosphatase kit (Vector Laboratories) following the manufacturer's protocol.

[6] = molecular target: T2, CD209 tetramer (Homo sapiens, UniProt Q9NNX6); settings: concentration required to inhibit, by 50%, the binding of a fluorescently labeled mannosylated glycoconjugate to CD209 tetramer; cited from earlier work
T2 sequence (Q9NNX6 59-404 limits assumed): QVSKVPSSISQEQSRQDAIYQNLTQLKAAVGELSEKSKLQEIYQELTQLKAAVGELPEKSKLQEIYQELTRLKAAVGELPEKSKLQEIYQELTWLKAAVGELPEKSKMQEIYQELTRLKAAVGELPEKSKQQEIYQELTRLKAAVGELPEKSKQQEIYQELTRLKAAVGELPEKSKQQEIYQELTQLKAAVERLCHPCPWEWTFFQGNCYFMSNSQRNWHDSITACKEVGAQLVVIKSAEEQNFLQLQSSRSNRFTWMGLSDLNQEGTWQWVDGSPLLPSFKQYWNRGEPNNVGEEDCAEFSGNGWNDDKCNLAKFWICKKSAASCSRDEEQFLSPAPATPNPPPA

[7] = 3 microgram/ml compound, 30 minutes

Compound	Kd [3]	IC50 [6]	also measured
CCC(=O)Nc1nc(C)c(-c2csc(Nc3ccc(N(C)C)cc3)n2)s1 [Compound 1]	1.6 µM	–	neutrophil spreading compared to the TNF-α control [1]: reduced neutrophil spreading; number of CD11b-positive inflammatory macrophages in the BAL [2]: decrease; number of Ly6G-positive neutrophils in the BAL [2]: decrease; neutrophil adhesion compared to the TNF-α control [4, 7]: significantly reduced neutrophil adhesion; CD11c-positive macrophages in lung sections ([5]; versus drug vehicle): significant increase; CD206-positive cells in lung sections ([5]; versus drug vehicle): significant increase; number of Ly6G-positive neutrophils in lung sections ([5]; versus drug vehicle): significant decrease; CD11b-positive inflammatory macrophages in lung sections [5]: no effect
CCCOC(=O)c1ccc(-c2ccc(C=C3C(=O)N(c4ccc(S(N)(=O)=O)cc4)N=C3C(F)(F)F)o2)cc1 [Compound 2]	6.2 µM	–	–
COC(=O)c1ccc(-c2ccc(C=C3C(=O)N(c4ccc(S(N)(=O)=O)cc4)N=C3C(F)(F)F)o2)cc1 [Compound 3]	32 µM	–	neutrophil adhesion compared to the TNF-α control [4, 7]: significantly reduced neutrophil adhesion
O=C1Nc2cc(C(=O)N3CCN(c4ccccc4)CC3)ccc2NC1CSCc1c(F)cccc1Cl (stereo not shown) [Compound 4]	7.3 µM	–	–
Cc1ccc(N(C)S(=O)(=O)c2ccc3[nH]cc(C(=O)N4CCN(c5ccccc5)CC4)c(=O)c3c2)cc1C [Compound 6]	6.1 µM	–	–
CN1CCN(c2ccc(/C=C3\Sc4ccccc4C3=O)cc2[N+](=O)[O-])CC1 [Compound 7]	10 µM	–	–
CCCCCC1C(=O)Nc2cc(C(=O)N3CCN(CCC)CC3)ccc2N1CC (stereo not shown) [Compound 9]	–	370 µM	–
CCCCCC1C(=O)Nc2cc(C(=O)N3CCN(CC)CC3)ccc2N1C (stereo not shown) [Compound 10]	–	360 µM	–
CCCCC1C(=O)Nc2cc(C(=O)N3CCN(C)CC3)ccc2N1C (stereo not shown) [Compound 11]	–	329 µM	–
CCCCC1Nc2ccc(C(=O)N3CCN(C)CC3)cc2NC1=O (stereo not shown) [Compound 12]	–	313 µM	–
CCC(=O)CCCC1C(=O)Nc2cc(C(=O)N3CCN(c4ccccc4)CC3)ccc2N1Cc1ccccc1 (stereo not shown) [Compound 14]	–	170 µM	–
O=C1Nc2cc(C(=O)N3CCN(c4ccccc4O)CC3)ccc2NC1CCCc1ccccc1 (stereo not shown) [Compound 15]	–	113 µM	–
O=C1Nc2cc(C(=O)N3CCN(c4ccccc4)CC3)ccc2NC1CCCc1ccccc1C(F)(F)F (stereo not shown) [Compound 16]	–	71 µM	–
CCN1c2ccc(C(=O)N3CCN(c4ncccn4)CC3)cc2NC(=O)C1CCCc1ccc(C(N)=O)cc1 (stereo not shown) [Compound 17]	–	68 µM	–
CC(=O)Nc1cccc(CCCC2Nc3ccc(C(=O)N4CCN(c5cccc(C(F)(F)F)c5)CC4)cc3NC2=O)c1 (stereo not shown) [Compound 19]	–	23 µM	–
O=C(O)c1ccc(CCCC2Nc3ccc(C(=O)N4CCN(c5ccco5)CC4)cc3NC2=O)cc1 (stereo not shown) [Compound 20]	–	10 µM	–
COc1ccccc1N1CCN(C(=O)c2ccc3c(c2)NC(=O)C(CCCc2ccccc2C)N3)CC1 (stereo not shown) [Compound 21]	–	4.4 µM	–
NC(=O)c1ccc(CCCC2Nc3ccc(C(=O)N4CCN(c5ncccn5)CC4)cc3NC2=O)cc1 (stereo not shown) [Compound 22]	–	2.6 µM	–
SAP: Serum Amyloid P from EMD Millipore, known to inhibit neutrophil migration and adhesion [reference compound]	–	–	neutrophil adhesion compared to the TNF-α control ([4]; 10 microgram/ml SAP): significantly reduced neutrophil adhesion
